Experimental data taken from US20230365563A1, “QUINAZOLINE COMPOUND AND APPLICATION THEREOF” (SHANGHAI PHARMACEUTICALS HOLDING CO., LTD., priority 2020, published 2023).
Counter-ions that a name gives are not always drawn.

Key:
KRAS-G12D and SOS1 = target: T1, KRAS-G12D and SOS1 (Homo sapiens, UniProt P01116, G12D); assay: Inhibition of KRAS-G12D/SOS1 binding (Cisbio binding kit, 665/615 ratio), Effect Embodiment A; conditions: read-out: GTP-KRAS-G12D:SOS1 IC50
T1 construct: purchased
In short: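 Compounds underwent 3-fold dilution from their storage solutions (11 points), were transferred to assay wells in duplicate with DMSO held at 1% final, and were briefly centrifuged.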

KRAS_G12D and cRAF = target: T2, KRAS_G12D and cRAF (Homo sapiens, UniProt P01116, G12D); assay: Inhibition of KRAS_G12D/cRAF binding (Cisbio binding kit, 665/615 ratio), Effect Embodiment B; conditions: read-out: GTP-KRAS-G12D:CRAF IC50
T2 construct: purchased
Procedure: (§1) Similarly, the first dilution point of the compound to be tested was its storage solution, and the solution was 3-fold diluted, with 11+0 points of dilution. Echo was used to transfer 0.2 μL gradient diluted solution of the compounds into a 384-well plate, with 2 duplicated wells for each compound, and the final concentration of DMSO was 1%. The solution was centrifuged for 1 min at 1000 rpm/min.
(§2) IC50 of the compounds was fitted by Graphpad Prism 8 nonlinear regression equation: […]
(§3) The IC50 (half inhibitory concentration) of the compound was obtained by using the following nonlinear fitting formula: […]

KRAS_WT and SOS1 = target: T3, KRAS_WT and SOS1 (Homo sapiens, UniProt P01116); assay: Inhibition of KRAS_WT/SOS1 binding (Cisbio binding kit, 665/615 ratio), Effect Embodiment C; conditions: read-out: GTP-KRAS-WT:SOS1 IC50
T3 construct: purchased
Procedure: The inhibitory ability of small molecule compounds on the binding activity of KRAS_WT and SOS1 was examined by a drug screening system based on the combination of KRAS_WT and SOS1.
as §1, §2, §3

T3 sequence (P01116 1-188 isoform P01116-2): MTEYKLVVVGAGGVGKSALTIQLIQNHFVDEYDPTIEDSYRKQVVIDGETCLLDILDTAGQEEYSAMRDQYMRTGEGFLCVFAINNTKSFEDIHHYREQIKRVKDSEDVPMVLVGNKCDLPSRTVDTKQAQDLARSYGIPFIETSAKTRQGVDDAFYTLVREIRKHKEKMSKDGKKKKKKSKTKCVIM
T1 sequence (P01116 1-188 isoform P01116-2 G12D): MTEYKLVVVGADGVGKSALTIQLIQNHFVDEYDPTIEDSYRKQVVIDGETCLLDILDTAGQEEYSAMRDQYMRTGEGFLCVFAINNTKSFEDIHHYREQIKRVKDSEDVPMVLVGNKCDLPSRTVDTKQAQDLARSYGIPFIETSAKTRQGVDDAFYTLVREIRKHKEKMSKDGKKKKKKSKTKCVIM
T2 sequence (P01116 1-188 isoform P01116-2 G12D): as above

CN(C)C1CN(c2nc(N3C[C@@H]4CC[C@H]3CN4)c3cc(Cl)c(-c4cc(O)cc5ccccc45)c(F)c3n2)C1 (single isomer, unassigned) [Compound 4a, (R or S)-4-(4-((1S,4S)-2,5-diazabicyclo [2.2.2]octan-2-yl)-6-chloro-2-(3-(dimethylamino)azetidin-1-yl)-8-fluoro-quinazolin-7-yl)naphthalen-2-ol]
IC50 (KRAS-G12D and SOS1): 36.9 nM | IC50 (KRAS_G12D and cRAF): 213 nM | IC50 (KRAS_WT and SOS1): 401 nM

CN(C)C1CN(c2nc(N3C[C@H]4CC[C@@H](C3)N4)c3cc(Cl)c(-c4cc(O)cc5ccccc45)c(F)c3n2)C1 (single isomer, unassigned) [Compound 5a, (R or S)-4-(4-((1R,5S)-3,8-diazabicyclo [3.2.1]octan-3-yl)-6-chloro-2-(3-(dimethylamino)azetidin-1-yl)-8-fluoro-quinazolin-7-yl)naphthalen-2-ol]
IC50 (KRAS-G12D and SOS1): 41.4 nM | IC50 (KRAS_G12D and cRAF): 251 nM | IC50 (KRAS_WT and SOS1): 1810 nM

CN(C)C1CN(c2nc(N3[C@@H]4CC[C@H]3CNC4)c3cc(Cl)c(-c4cc(O)cc5ccccc45)c(F)c3n2)C1 (single isomer, unassigned) [Compound 6a, (R or S)-4-(4-((1R,5S)-3,8-diazabicyclo [3.2.1]octan-8-yl)-6-chloro-2-(3-(dimethylamino)azetidin-1-yl)-8-fluoro-quinazolin-7-yl)naphthalen-2-ol]
IC50 (KRAS-G12D and SOS1): 66.4 nM | IC50 (KRAS_G12D and cRAF): 66 nM | IC50 (KRAS_WT and SOS1): 293 nM

CN(C)C1CN(c2nc(N3CC4(CNC4)C3)c3cc(Cl)c(-c4cc(O)cc5ccccc45)c(F)c3n2)C1 (single isomer, unassigned) [Compound 7a, (R or S)-4-(6-chloro-2-(3-(dimethylamino)azetidin-1-yl)-8-fluoro-4-(2,6-diazaspiro[3.3]heptan-2-yl)quinazolin-7-yl)naphthalen-2-ol]
IC50 (KRAS-G12D and SOS1): 278 nM | IC50 (KRAS_G12D and cRAF): 3330 nM | IC50 (KRAS_WT and SOS1): 15900 nM

CN(C)C1CN(c2nc(N3CC4(CCNC4)C3)c3cc(Cl)c(-c4cc(O)cc5ccccc45)c(F)c3n2)C1 (single isomer, unassigned) [Compound 8a, (R or S)-4-(6-chloro-2-(3-(dimethylamino)azetidin-1-yl)-8-fluoro-4-(2,6-diazaspiro[3.4]octan-2-yl)quinazolin-7-yl)naphthalen-2-ol]
IC50 (KRAS-G12D and SOS1): 461 nM | IC50 (KRAS_G12D and cRAF): 1170 nM | IC50 (KRAS_WT and SOS1): 5340 nM

CN(C)C1CN(c2nc(N3CC4(CCNCC4)C3)c3cc(Cl)c(-c4cc(O)cc5ccccc45)c(F)c3n2)C1 (single isomer, unassigned) [Compound 10a, (R or S)-4-(6-chloro-2-(3-(dimethylamino)azetidin-1-yl)-8-fluoro-4-(2,7-diazaspiro[3.5]nonan-2-yl)quinazolin-7-yl)naphthalen-2-ol]
IC50 (KRAS-G12D and SOS1): 780 nM | IC50 (KRAS_G12D and cRAF): 3230 nM | IC50 (KRAS_WT and SOS1): 10300 nM

CN(C)C1CN(c2nc(N3CCNCC34CC4)c3cc(Cl)c(-c4cc(O)cc5ccccc45)c(F)c3n2)C1 (single isomer, unassigned) [Compound 19a, (R or S)-4-(6-chloro-2-(3-(dimethylamino)azetidin-1-yl)-8-fluoro-4-(4,7-diazaspiro[2.5]octan-4-yl)quinazolin-7-yl)naphthalen-2-ol]
IC50 (KRAS-G12D and SOS1): 898 nM | IC50 (KRAS_G12D and cRAF): 1630 nM | IC50 (KRAS_WT and SOS1): 9420 nM

CN(C)C1CN(c2nc(N3CCCNCC3)c3cc(Cl)c(-c4cc(O)cc5ccccc45)c(F)c3n2)C1 (single isomer, unassigned) [Compound 23, (S or R)-4-(6-chloro-4-(1,4-diaza-1-yl)-2-(3-(dimethylamino)azetidin-1-yl)-8-fluoroquinazolin-7-yl)naphthalen-2-ol]
IC50 (KRAS-G12D and SOS1): 947 nM | IC50 (KRAS_G12D and cRAF): 22600 nM | IC50 (KRAS_WT and SOS1): 12400 nM

CN(C)C1CN(c2nc(N3CC4CC(C3)N4)c3cc(Cl)c(-c4cc(O)cc5ccccc45)c(F)c3n2)C1 (single isomer, unassigned) [Compound 25, 4-((7S or 7R)-4-(3,6-diazabicyclo[3.1.1]heptan-3-yl)-6-chloro-2-(3-(dimethylamino)azetidin-1-yl)-8-fluoroquinazolin-7-yl)naphthalen-2-ol]
IC50 (KRAS-G12D and SOS1): 294 nM | IC50 (KRAS_G12D and cRAF): 4380 nM | IC50 (KRAS_WT and SOS1): 2550 nM

CN(C)C1CN(c2nc(N3CCNC4CC43)c3cc(Cl)c(-c4cc(O)cc5ccccc45)c(F)c3n2)C1 (single isomer, unassigned) [Compound 28, 4-((S or R)-4-((1R,6S or 1S,6R)-2,5-diazabicyclo[4.1.0]heptan-2-yl)-6-chloro-2-(3-(dimethylamino)azetidin-1-yl)-8-fluoroquinazolin-7-yl)naphthalen-2-ol trifluoroacetate]
IC50 (KRAS-G12D and SOS1): 312 nM | IC50 (KRAS_G12D and cRAF): 4700 nM | IC50 (KRAS_WT and SOS1): 22500 nM

CN(C)C1CN(c2nc(N3CC4CCCC3CN4)c3cc(Cl)c(-c4cc(O)cc5ccccc45)c(F)c3n2)C1 (single isomer, unassigned) [Compound 37, 4-((S or R)-4-((1S,5S or 1R,5R)-6,8-diazabicyclo[3.2.2]nonan-6-yl)-6-chloro-2-(3-(dimethylamino)azetidin-1-yl)-8-fluoroquinazolin-7-yl)naphthalen-2-ol]
IC50 (KRAS-G12D and SOS1): 629 nM | IC50 (KRAS_G12D and cRAF): 2140 nM | IC50 (KRAS_WT and SOS1): 1010 nM

CN1CCC[C@H]1COc1nc(N2CC3CCC(C2)N3)c2cc(Cl)c(-c3cc(O)cc4ccccc34)c(F)c2n1 (single isomer, unassigned) [Compound 39a, (S or R)-4-(4-((1R,5S)-3,8-diazabicyclo[3.2.1]octan-3-yl)-6-chloro-8-fluoro-2-((S)-1-methylpyrrolidin-2-yl)methoxy)quinazolin-7-yl)naphthalen-2-ol]
IC50 (KRAS-G12D and SOS1): 27.7 nM | IC50 (KRAS_G12D and cRAF): 26.2 nM | IC50 (KRAS_WT and SOS1): 342 nM

CN(C)CCCOc1nc(N2C[C@H]3CC[C@@H](C2)N3)c2cc(Cl)c(-c3cc(O)cc4ccccc34)c(F)c2n1 (single isomer, unassigned) [Compound 40a, (S or R)-4-(4-((1R,5S)-3,8-diazabicyclo[3.2.1]octan-3-yl)-6-chloro-2-(3-(dimethylamino)propoxy)-8-fluoroquinazolin-7-yl)naphthalen-2-ol]
IC50 (KRAS-G12D and SOS1): 15.2 nM | IC50 (KRAS_G12D and cRAF): 104 nM | IC50 (KRAS_WT and SOS1): 1040 nM

Cc1cccc2cc(O)cc(-c3c(Cl)cc4c(N5CC6CCC(C5)N6)nc(N5CC(N(C)C)C5)nc4c3F)c12 (single isomer, unassigned) [Compound 47a, 4-((S or R)-4-((1R,5S)-3,8-diazabicyclo[3.2.1]octan-3-yl)-6-chloro-2-(3-(dimethylamino)azetidin-1-yl)-8-fluoroquinazolin-7-yl)-5-methylnaphthalen-2-ol]
IC50 (KRAS-G12D and SOS1): 208 nM | IC50 (KRAS_G12D and cRAF): 824 nM | IC50 (KRAS_WT and SOS1): 5700 nM

CN(C)CCOc1nc(N2CC3CCC(C2)N3)c2cc(Cl)c(-c3cc(O)cc4ccccc34)c(F)c2n1 (single isomer, unassigned) [Compound 48a, 4-((S or R)-4-((1R,5S)-3,8-diazabicyclo[3.2.1]octan-3-yl)-6-chloro-2-(2-(dimethylamino)ethoxy)-8-fluoroquinazolin-7-yl)naphthalen-2-ol]
IC50 (KRAS-G12D and SOS1): 23.8 nM | IC50 (KRAS_G12D and cRAF): 130 nM | IC50 (KRAS_WT and SOS1): 6020 nM

CCN(C)CCCOc1nc(N2CC3CCC(C2)N3)c2cc(Cl)c(-c3cc(O)cc4ccccc34)c(F)c2n1 (single isomer, unassigned) [Compound 49a]
IC50 (KRAS-G12D and SOS1): 36.2 nM | IC50 (KRAS_G12D and cRAF): 159 nM | IC50 (KRAS_WT and SOS1): 1710 nM

CC(C)N(C)CCCOc1nc(N2CC3CCC(C2)N3)c2cc(Cl)c(-c3cc(O)cc4ccccc34)c(F)c2n1 (single isomer, unassigned) [Compound 50a, 4-((S or R)-4-((1R,5S)-3,8-diazabicyclo[3.2.1]octan-3-yl)-6-chloro-8-fluoro-2-(3-(isopropyl(methyl)amino)propoxy)quinazolin-7-yl)naphthalen-2-ol trifluoroacetate]
IC50 (KRAS-G12D and SOS1): 44.3 nM | IC50 (KRAS_G12D and cRAF): 155 nM | IC50 (KRAS_WT and SOS1): 1690 nM

CCCN(C)CCCOc1nc(N2CC3CCC(C2)N3)c2cc(Cl)c(-c3cc(O)cc4ccccc34)c(F)c2n1 (single isomer, unassigned) [Compound 51a, 4-((S or R)-4-((1R,5S)-3,8-diazabicyclo[3.2.1]octan-3-yl)-6-chloro-8-fluoro-2-(3-(methyl(propyl)amino)propoxy)quinazolin-7-yl)naphthalen-2-ol carboxylate]
IC50 (KRAS-G12D and SOS1): 30.8 nM | IC50 (KRAS_G12D and cRAF): 144 nM | IC50 (KRAS_WT and SOS1): 1420 nM

CN1CCN(c2nc(N3CC4CCC(C3)N4)c3cc(Cl)c(-c4cc(O)cc5ccccc45)c(F)c3n2)CC1 (single isomer, unassigned) [Compound 52a, 4-((S or R)-4-((1R,5S)-3,8-diazabicyclo[3.2.1]octan-3-yl)-6-chloro-8-fluoro-2-(4-methylpiperazin-1-yl)quinazolin-7-yl)naphthalen-2-ol]
IC50 (KRAS-G12D and SOS1): 1140 nM | IC50 (KRAS_G12D and cRAF): 9210 nM | IC50 (KRAS_WT and SOS1): 28900 nM

CCN(CC)CCCOc1nc(N2CC3CCC(C2)N3)c2cc(Cl)c(-c3cc(O)cc4ccccc34)c(F)c2n1 (single isomer, unassigned) [Compound 53a, 4-((S or R)-4-((1R,5S)-3,8-diazabicyclo[3.2.1]octan-3-yl)-6-chloro-2-(3-(diethylamino)propoxy)-8-fluoroquinazolin-7-yl)naphthalen-2-ol]
IC50 (KRAS-G12D and SOS1): 59.7 nM | IC50 (KRAS_G12D and cRAF): 147 nM | IC50 (KRAS_WT and SOS1): 2170 nM

Oc1cc(-c2c(Cl)cc3c(N4CC5CCC(C4)N5)nc(OCCCN4CCOCC4)nc3c2F)c2ccccc2c1 (single isomer, unassigned) [Compound 54a, 4-((S or R)-4-((1R,5S)-3,8-diazabicyclo[3.2.1]octan-3-yl)-6-chloro-8-fluoro-2-(3-morpholinopropoxy)quinazolin-7-yl)naphthalen-2-ol]
IC50 (KRAS-G12D and SOS1): 26.2 nM | IC50 (KRAS_G12D and cRAF): 103 nM | IC50 (KRAS_WT and SOS1): 1190 nM
